# In patent publication US20240228536A1, “PEPTIDES FOR USE IN SKIN AND HAIR PIGMENTATION” (Follicum AB, priority 2020, published 2024):
# What was measured:
# Assay type in all cases: cell-based, human
# [1] = test system: Pigmented skin equivalents (SEs), Melanoderms Mel-300-A (donor) and Mel-300-C-2 (donor); assay: Skin equivalent culture, photographic assessment of pigmentation
# Procedure: The skin equivalent surface area was 63.6 mm^2. Other equipment used included SMZ1000 Stereo Microscope (Nikon); UC30 Microscope Camera (Olympus); Phosphate-Buffered Saline (PBS); 6-well Tissue Culture Plates (Sarstedt); Image J software (https://imagej.nih.gov); Paintshop Photo Pro Software (Corel). The Melanoderms were prepared by carefully removing the agarose with sterile forceps and placing them in pre-warmed culture medium (37° C.) for an hour prior to treatment. The Melanoderms were then topically treated (without rubbing) with 25 μl of the various peptides, dissolved in dH2O at 10 mg/ml. […] The SEs were examined and removed from culture when skin darkening became visible. The pigmentation of the Melanoderms was macroscopically assessed by capturing high-resolution images using the Olympus microscope camera. […] They were then placed into a 6-well plate containing 1 ml PBS/well and images captured at ×8 magnification. The images were then processed using Image J & Paintshop Photo Pro software, to determine a quantifiable pixel area, which equated to the level of pigmentation present in the skin equivalent. The image brightness was normalised and the image gray-scaled using Paintshop Photo Pro, then Image J was used to threshold the image. The pigmentation was quantified by assessing total pixel area of pigmentation coverage in a fixed sample area. An ANOVA test (Dunnett's post-test) was used for the statistical analysis. Three different experiments were conducted. In the first, skin equivalents from both donors were included, and in experiment 2 and 3, only the […] donor was included. The SE of the […] donor from the first experiment received 5 treatments of 25 μl of peptide solution at 10 mg/ml; starting on the first day following receipt then on days 3, 5, 9 and 12. Peptides 1 (SEQ ID NO: 2), 3 (SEQ ID NO: 3) and 4 (SEQ ID NO: 4) were tested. The images were taken on Day 14. In experiment 2, peptide 3 and 4 were selected for testing to see if it had any efficacy in reducing melanin content or the distribution of melanin throughout the SE. This time, 5 SEs were used per treatment to improve statistical robustness. The experiment was continued for 20 days with treatments on days 0, 3, 7 and 12 and medium changes every other day. In experiment 3 a more highly pigmented SE ([…] donor melanocytes) was used and with an increased sample size with n=7 per treatment. […] Treatment was repeated on days 5, 9, 12 and 15 with medium changed every other day.
# Melanoderm SEs = assay: Warthin-Starry silver staining of melanin granules in Melanoderms; details: in formulation B at all three concentrations (0.4%, 1%, 2%), 7 days, compared to formulation only
# Procedure: Tissue from each Melanoderm of Example 13 was carefully cut from inserts using a sterile scalpel blade (no. 11) and cut in half. One half was submerged overnight at −20° C. in RNAlater solution (Qiagen, UK) for RNA stabilization. The following day excess RNAlater solution was removed, and samples stored at −80° C. until RNA extracted for qPCR. The second half of each tissue was fixed overnight in 10% neutral buffered formalin then processed for wax embedding, sectioning, and Warthin-Starry staining.
# All reagents used were of research grade quality and obtained from Sigma, UK. For silver staining high purity photo-grade (>99%) Silver nitrate was used. All reagents were prepared in acidulated (citrulated) distilled water (approx. 1 ml/L of 1% Citric acid was added to distilled water to change the pH to 3.4). Other equipment used were two water baths pre-set at 43° C. and 54° C., plastic staining tubs and slide racks for incubating slides, magnetic stirrers, and calibrated pH meter.
# Melanin in tissue sections was stained using the modified Warthin-Starry staining method (Warthin, A. et al., Am. J. Syph. (1920) 4:97-103; Warkel, R. et al., Am. J. Clin. Path. (1980) 73 June (6): 812-5.). Briefly, 7 μm tissue sections were cut from wax blocks and floated onto charged slides (Leica Xtra clipped corner glass slides). […]
# Tyrosinase (TYR) = assay: qPCR expression analysis of melanogenesis markers in Melanoderm SEs; details: 0.4% in formulation B, day 7, compared to formulation B only (p=0.027, t-test)
# Procedure: RNA stabilized Melanoderm tissue from Example 13 was thawed on ice RNA extracted using the RNeasy extraction kit (Qiagen, UK) according to manufacturer's instructions.
# To ensure efficient lysis, tissue was ground in lysis buffer in a RNase-free 1.5 ml centrifuge tube using a sterile microbiological colony picker then passed through a Qiashredder column (Qiagen, UK) before lysate was purified. To prevent carry over of gDNA to qPCR, on-column digestion using 80 μl of DNase enzyme was added (DNase on column digestion kit, Sigma, UK). RNA was eluted in a 50 μl volume of sterile elution buffer and stored at −80° C. until use. For cDNA reverse transcription 8 μl of RNA was added as template in a 20 μl final volume in a 96-well plate using the iScript Advanced cDNA Synthesis Kit for RT-qPCR (Bio-Rad, UK) according to manufacturer's instructions. Low profile 96-well PCR plates and seals for qPCR reactions were obtained from Thermofisher. For qPCR 1 μl of cDNA from each test sample and relevant controls were amplified in a 96-well plate using SsoAdvanced Universal SYBR® Green Supermix and target pigmentation specific gene primers (pigment cell-specific pre-melanosomal protein (PMEL), Tyrosinase-related protein-1 (TYRP-1) and Tyrosinase (TYR)) in a 20 μl final reaction volume. Prevalidated primers, templates and gDNA controls were sourced from Bio-Rad, UK. Prevalidated template cDNA was included as a positive control for each gene tested. Ribosomal protein-20 (RPS20) was used as a housekeeping gene control. Samples were amplified using an Applied Biosystems StepOne Plus qPCR machine and associated software. Differences in fold gene expression between treatments and untreated controls were calculated from RPS20 reference gene normalised Ct values using the ΔΔCt method (2-(ΔΔCt)). Final expression values were log 10 transformed prior to statistical analysis (unpaired t-test) using Prism software.
# [2] = experiment 1, donor, 10 mg/ml, 20 days in culture
# [3] = experiment 1, donor, 5 topical treatments of 25 μl at 10 mg/ml in dH2O, images Day 14
# [4] = experiment 3, more highly pigmented SE (donor), 10 mg/ml, n=7
Substance,"pigmentation of skin equivalents (photographic assessment) compared to vehicle control [1, 2]","pigmentation of skin equivalents (photographic assessment) compared to vehicle control [1, 3]","pigmentation of skin equivalents (photographic assessment) compared to vehicle control ([1]; experiment 2, donor, 10 mg/ml, 20 days, n=5)","pigmentation of skin equivalents (photographic assessment) compared to vehicle control [1, 4]",melanin in epidermal layers (Warthin-Starry) (Melanoderm SEs),relative expression of Tyrosinase (TYR) (qPCR) (Tyrosinase (TYR))
Asn-Ala-Ala-Met (NAAM; (1)..(4) Peptide 4),somewhat darker and mottled appearance,more pigmented compared to the vehicle,increase in pigmentation compared to the vehicle control samples,increase in pigmentation,greater increase in melanin in all layers of the epidermis,significant increase in expression
Asn-Ala-His-Met (NAHM; (1)..(4) Peptide 1),somewhat darker and mottled appearance,more pigmented compared to the vehicle,,increase in pigmentation,modest increase in melanin in the basal and stratum spinosum layers,
